Converted amounts (≈) assume the structure as drawn.
Columns and labels:
[1] = DI water at 35° C.; Jin et al., J Solution Chem., 2013; cited from earlier work
[2] = tested on: Staphylococcus aureus; assay: Minimal inhibitory concentration, broth micro dilution method; format: cell-based; details: overnight incubation, OD 610 nm, stock in DMSO, read-out: MIC S. aureus (G+)
Protocol: (§1) Minimal inhibition concentration (MIC) is the lowest concentration of an antimicrobial agent that can inhibit the visible growth of a microorganism after overnight incubation. The MIC values of zinc:usnate complex and usnic acid against Staphylococcus aureus and Escherichia coli were determined with the broth micro dilution method. Briefly, 0.1% stock solutions were prepared in dimethyl sulfoxide (DMSO). Using a 96-well microtitre plate, the corresponding testing concentrations are 500, 250, 125, 62, 31, 16, 8, 4, 2, 1, 0.5 and 0.2 ppm, respectively. The optic density readings at 610 nm for each well were used to assess the level of bacterial growth.

[3] = tested on: Escherichia coli; assay: as above; format: cell-based; details: overnight incubation, OD 610 nm, stock in DMSO, read-out: MIC E. Coli (G−)
Protocol: as §1

For `CC(=O)c1c(O)c(C)c(O)c2c1OC1=CC(=O)C(C(C)=O)C(=O)C12C` (stereo not drawn) [Usnic Acid, usnic acid], the solubility [1] is given as 6.3 ppm, the MIC [2] is given as 4 µg/mL (≈ 11.6 µM) and the MIC [3] is given as greater than 125 µg/mL.

Source: patent publication US11517512B2, “Personal care compositions comprising zinc : usnic acid complexes and methods of use” (Colgate-Palmolive Company, priority 2017, dated 2022)
